The source made the active and inactive calls. The rule behind the calls is not given here.
Tests used:
[1] = biological target: T1, Olfactory receptor 51E2 (Homo sapiens) (UniProt Q9H255); assay: Agonist activity at PSGR/OR51E2 (unknown origin) expressed in human Hana3A cells co-transfected with CRE-Luc by luciferase reporter gene assay relative to control 1 mM propionic acid; type: functional, cell-based
T1 sequence (whole entry): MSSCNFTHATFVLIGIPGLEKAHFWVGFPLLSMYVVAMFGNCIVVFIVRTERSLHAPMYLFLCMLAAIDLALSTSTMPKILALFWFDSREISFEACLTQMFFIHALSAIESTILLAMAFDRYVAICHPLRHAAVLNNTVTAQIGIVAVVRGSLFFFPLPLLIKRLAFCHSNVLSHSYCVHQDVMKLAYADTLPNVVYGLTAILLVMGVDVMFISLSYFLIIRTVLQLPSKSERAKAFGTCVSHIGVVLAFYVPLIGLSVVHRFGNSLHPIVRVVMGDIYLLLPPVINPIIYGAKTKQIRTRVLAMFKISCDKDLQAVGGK

Olfactory receptor 51E2 = biological target: T2, Olfactory receptor 51E2 (Homo sapiens, UniProt Q9H255); assay: Agonist activity at PSGR/OR51E2 (unknown origin) expressed in human Hana3A cells co-transfected with CRE-Luc by luciferase reporter gene assay; type: functional, cell-based
T2 sequence (Q9H255 whole entry): T1 sequence (whole entry)

[2] = biological target: T1, Olfactory receptor 51E2 (Homo sapiens); assay: Agonist activity at PSGR/OR51E2 in human LNCaP cells assessed as induction of neuroendocrine trans-differentiation related gene expression by measuring increase in NSE mRNA expression incubated for 12 days by RT-PCR analysis; type: cell-based
[3] = biological target: T1, Olfactory receptor 51E2 (Homo sapiens); assay: Agonist activity at PSGR/OR51E2 in human LNCaP cells assessed as induction of change in extracellular metabolites level by measuring guanine level at 100 nM incubated for 72 hrs by GC/MS analysis; type: cell-based
[4] = biological target: T1, Olfactory receptor 51E2 (Homo sapiens); assay: Agonist activity at PSGR/OR51E2 in human LNCaP cells assessed as induction of change in intracellular metabolites level by measuring fructose-6-phosphate level at 100 nM incubated for 72 hrs by GC/MS analysis; type: cell-based
[5] = biological target: T1, Olfactory receptor 51E2 (Homo sapiens); assay: Agonist activity at PSGR/OR51E2 in human LNCaP cells assessed as induction of change in intracellular metabolites level by measuring beta-alanine level at 100 nM incubated for 72 hrs by GC/MS analysis; type: cell-based
[6] = biological target: T1, Olfactory receptor 51E2 (Homo sapiens); assay: Agonist activity at PSGR/OR51E2 in human LNCaP cells assessed as induction of change in extracellular metabolites level by measuring succinic acid level at 100 nM incubated for 72 hrs by GC/MS analysis; type: cell-based
[7] = biological target: T1, Olfactory receptor 51E2 (Homo sapiens); assay: Agonist activity at PSGR/OR51E2 in human LNCaP cells assessed as induction of change in intracellular metabolites level by measuring pantothenic acid level at 100 nM incubated for 72 hrs by GC/MS analysis; type: cell-based
[8] = biological target: T1, Olfactory receptor 51E2 (Homo sapiens); assay: Agonist activity at PSGR/OR51E2 in human LNCaP cells assessed as induction of change in extracellular metabolites level by measuring n-acetylaspartic acid level at 100 nM incubated for 72 hrs by GC/MS analysis; type: cell-based
[9] = biological target: T1, Olfactory receptor 51E2 (Homo sapiens); assay: Agonist activity at PSGR/OR51E2 in human LNCaP cells assessed as induction of change in intracellular metabolites level by measuring malic acid level at 100 nM incubated for 72 hrs by GC/MS analysis; type: cell-based
[10] = biological target: T1, Olfactory receptor 51E2 (Homo sapiens); assay: Agonist activity at PSGR/OR51E2 in human LNCaP cells assessed as induction of change in extracellular metabolites level by measuring glutaric acid level at 100 nM incubated for 72 hrs by GC/MS analysis; type: cell-based
[11] = biological target: T1, Olfactory receptor 51E2 (Homo sapiens); assay: Agonist activity at PSGR/OR51E2 in human LNCaP cells assessed as induction of change in extracellular metabolites level by measuring hydroxyprolines level at 100 nM incubated for 72 hrs by GC/MS analysis; type: cell-based
[12] = biological target: T1, Olfactory receptor 51E2 (Homo sapiens); assay: Agonist activity at PSGR/OR51E2 in human LNCaP cells assessed as induction of change in extracellular metabolites level by measuring glyceric acid level at 100 nM incubated for 72 hrs by GC/MS analysis; type: cell-based
[13] = biological target: T1, Olfactory receptor 51E2 (Homo sapiens); assay: Agonist activity at PSGR/OR51E2 in human LNCaP cells assessed as induction of change in intracellular metabolites level by measuring urea level at 100 nM incubated for 72 hrs by GC/MS analysis; type: cell-based
[14] = biological target: T1, Olfactory receptor 51E2 (Homo sapiens); assay: Agonist activity at PSGR/OR51E2 in human LNCaP cells assessed as induction of change in extracellular metabolites level by measuring hydroquinone level at 100 nM incubated for 72 hrs by GC/MS analysis; type: cell-based
[15] = biological target: T1, Olfactory receptor 51E2 (Homo sapiens); assay: Agonist activity at PSGR/OR51E2 in human LNCaP cells assessed as induction of change in extracellular metabolites level by measuring 2-ketoleucine level at 100 nM incubated for 72 hrs by GC/MS analysis; type: cell-based
[16] = biological target: T1, Olfactory receptor 51E2 (Homo sapiens); assay: Agonist activity at PSGR/OR51E2 in human LNCaP cells assessed as induction of change in intracellular metabolites level by measuring tyrosine level at 100 nM incubated for 72 hrs by GC/MS analysis; type: cell-based
[17] = biological target: T1, Olfactory receptor 51E2 (Homo sapiens); assay: Agonist activity at PSGR/OR51E2 in human LNCaP cells assessed as induction of change in intracellular metabolites level by measuring glucose-6-phosphate level at 100 nM incubated for 72 hrs by GC/MS analysis; type: cell-based
[18] = biological target: T1, Olfactory receptor 51E2 (Homo sapiens); assay: Agonist activity at PSGR/OR51E2 in human LNCaP cells assessed as induction of change in extracellular metabolites level by measuring benzoic-acid level at 100 nM incubated for 72 hrs by GC/MS analysis; type: cell-based
[19] = biological target: T1, Olfactory receptor 51E2 (Homo sapiens); assay: Agonist activity at PSGR/OR51E2 in human LNCaP cells assessed as induction of change in extracellular metabolites level by measuring 2-deoxyglucose level at 100 nM incubated for 72 hrs by GC/MS analysis; type: cell-based
[20] = biological target: T1, Olfactory receptor 51E2 (Homo sapiens); assay: Agonist activity at PSGR/OR51E2 in human LNCaP cells assessed as induction of neuroendocrine trans-differentiation related gene expression by measuring increase in AMACR mRNA expression incubated for 12 days by RT-PCR analysis; type: cell-based
[21] = biological target: T1, Olfactory receptor 51E2 (Homo sapiens); assay: Agonist activity at PSGR/OR51E2 in human LNCaP cells assessed as induction of change in intracellular metabolites level by measuring alanine level at 100 nM incubated for 72 hrs by GC/MS analysis; type: cell-based
[22] = biological target: T1, Olfactory receptor 51E2 (Homo sapiens); assay: Agonist activity at PSGR/OR51E2 in human LNCaP cells assessed as induction of change in extracellular metabolites level by measuring alpha-ketoglutaric acid level at 100 nM incubated for 72 hrs by GC/MS analysis; type: cell-based
[23] = biological target: T1, Olfactory receptor 51E2 (Homo sapiens); assay: Agonist activity at PSGR/OR51E2 in human LNCaP cells assessed as induction of change in intracellular metabolites level by measuring fumaric acid level at 100 nM incubated for 72 hrs by GC/MS analysis; type: cell-based
[24] = biological target: T1, Olfactory receptor 51E2 (Homo sapiens); assay: Agonist activity at PSGR/OR51E2 in human LNCaP cells assessed as induction of change in extracellular metabolites level by measuring beta-alanine level at 100 nM incubated for 72 hrs by GC/MS analysis; type: cell-based
[25] = biological target: T1, Olfactory receptor 51E2 (Homo sapiens); assay: Agonist activity at PSGR/OR51E2 in human LNCaP cells assessed as induction of change in intracellular metabolites level by measuring lactic acid level at 100 nM incubated for 72 hrs by GC/MS analysis; type: cell-based
[26] = biological target: T1, Olfactory receptor 51E2 (Homo sapiens); assay: Agonist activity at PSGR/OR51E2 in human LNCaP cells assessed as induction of neuroendocrine trans-differentiation related gene expression by measuring increase in OR51E2 mRNA expression incubated for 12 days by RT-PCR analysis; type: cell-based
[27] = biological target: T1, Olfactory receptor 51E2 (Homo sapiens); assay: Agonist activity at PSGR/OR51E2 in human LNCaP cells assessed as induction of change in extracellular metabolites level by measuring cysteine level at 100 nM incubated for 72 hrs by GC/MS analysis; type: cell-based
[28] = biological target: T1, Olfactory receptor 51E2 (Homo sapiens); assay: Agonist activity at PSGR/OR51E2 in human LNCaP cells assessed as induction of change in intracellular metabolites level by measuring serine level at 100 nM incubated for 72 hrs by GC/MS analysis; type: cell-based
[29] = biological target: T1, Olfactory receptor 51E2 (Homo sapiens); assay: Agonist activity at PSGR/OR51E2 in human LNCaP cells assessed as induction of change in intracellular metabolites level by measuring adenosine/inosine level at 100 nM incubated for 72 hrs by GC/MS analysis; type: cell-based
[30] = biological target: T1, Olfactory receptor 51E2 (Homo sapiens); assay: Agonist activity at PSGR/OR51E2 in human LNCaP cells assessed as induction of change in extracellular metabolites level by measuring asparagine level at 100 nM incubated for 72 hrs by GC/MS analysis; type: cell-based
[31] = biological target: T1, Olfactory receptor 51E2 (Homo sapiens); assay: Agonist activity at PSGR/OR51E2 in human LNCaP cells assessed as induction of change in intracellular metabolites level by measuring threonine level at 100 nM incubated for 72 hrs by GC/MS analysis; type: cell-based
[32] = biological target: T1, Olfactory receptor 51E2 (Homo sapiens); assay: Agonist activity at PSGR/OR51E2 in human LNCaP cells assessed as induction of change in intracellular metabolites level by measuring tyramine level at 100 nM incubated for 72 hrs by GC/MS analysis; type: cell-based
[33] = biological target: T1, Olfactory receptor 51E2 (Homo sapiens); assay: Agonist activity at PSGR/OR51E2 in human LNCaP cells assessed as induction of change in extracellular metabolites level by measuring urea level at 100 nM incubated for 72 hrs by GC/MS analysis; type: cell-based
[34] = biological target: T1, Olfactory receptor 51E2 (Homo sapiens); assay: Agonist activity at PSGR/OR51E2 in human LNCaP cells assessed as induction of change in intracellular metabolites level by measuring guanine level at 100 nM incubated for 72 hrs by GC/MS analysis; type: cell-based

COc1cc(CCC(=O)CC(=O)CCc2ccc(O)c(OC)c2)ccc1O
Ratio [1]: 0.284

O=C1CN=CN1
Ratio [1]: 0.678

Nc1nc2[nH]c(O)nc2c(=O)[nH]1
EC50 (Olfactory receptor 51E2): 0.00044 nM

H-RPPGFSPFR-OH [BRADYKININ]
EC50 (Olfactory receptor 51E2): 1.3 nM

Oc1ccc(-c2[o+]c3cc(O)cc(O)c3cc2O)cc1
Ratio [1]: 0.621

C[C@]12CC[C@H]3[C@@H](CCC4=CC(=O)CC[C@@]43CO)[C@@H]1CCC2=O
Activity [2]: Active
Activity [3]: Active
Activity [4]: Active
Activity [5]: Active
Activity [6]: Active
Activity [7]: Active
Activity [8]: Active
Activity [9]: Active
Activity [10]: Active
Activity [11]: Active
Activity [12]: Active
Activity [13]: Active
Activity [14]: Active
Activity [15]: Active
Activity [16]: Active
Activity [17]: Active
Activity [18]: Active
Activity [19]: Active
Activity [20]: Active
Activity [21]: Active
Activity [22]: Active
Activity [23]: Active
Activity [24]: Active
Activity [25]: Active
Activity [26]: Active
Activity [27]: Active
Activity [28]: Active
Activity [29]: Active
Activity [30]: Active
Activity [31]: Active
Activity [32]: Active
Activity [33]: Active
Activity [34]: Active

H-RPPGFSPFR-OH
Ratio [1]: 0.762

Reference: ChEMBL document CHEMBL4482311, “Modulators of Prostate-Specific G-Protein Receptor (PSGR/OR51E2) and Methods of Using Same” (2018)
